{
  "source": "patent US20090197955A1",
  "about": "“METHODS OF IMPROVING DHA DEPOSITION AND RELATED FUNCTION AND/OR DEVELOPMENT” (Monsanto Company, priority 2008, published 2009)",
  "key": {"[1]": {"conditions": "cited from earlier work"}, "[2]": {"experiment": "Brain outer cortex lipid fatty acid analysis, control vs 0.8% SDA", "format": "in vivo, pigs", "procedure": "About 1 g of frozen heart or brain tissue was pulverized in a stainless steel mortar and pestle maintained at −70° C. It was then suspended in 2 mL of ice-cold saline and sonicated on ice to thoroughly disperse the tissue. The lipids were extracted with methylene chloride:methanol. […] After extraction of the fatty acid methyl esters (FAME) with hexane:water, their composition was analyzed in a GC2010 (Shimadzu Scientific Instruments, Columbia, Md.) using a fused silica capillary columns (SP-2560, 100 m length, 0.25 mm internal diameter, 0.25 um film thickness, Supelco, Bellefonte, Pa.). A weighed external standard fatty acid (FA) mixture (GLC727, NuCheck Prep, Elysian, Minn.) was included to correct for potential differences in FA response factors. The response factor for palmitic acid of is assumed to be 1.0. Results were expressed as a percent of total identified FA (for composition endpoints) and as mg FA/g tissue. To further explore the effect of SDA on brain tissue composition, samples from the four control and four high dose (Treatment 5) animals were shaved to isolate the outer cortex. This was done to test the hypothesis that white, myelinated tissue found in the mid brain may not accumulate DHA as readily as gray matter in the cerebral cortex."}, "[3]": {"conditions": "prior studies; cited from earlier work"}, "[4]": {"conditions": "0.8% SDA (Treatment 5), average"}},
  "data": [
    {"compound": "CC/C=C\\C/C=C\\C/C=C\\C/C=C\\CCCCC(=O)O", "note": "[SDA, stearidonic acid]", "values": [
      {"measurement": "Amount of SDA relative to EPA needed to enrich blood tissues with an equivalent amount of EPA", "setting": "[1]", "result": 3, "unit": "times"},
      {"measurement": "C14:0, brain outer cortex", "setting": "[2]; [4]", "result": 0.50, "unit": "%"},
      {"measurement": "C16:0, brain outer cortex", "setting": "[2]; [4]", "result": 24.20, "unit": "%"},
      {"measurement": "C16:1n7, brain outer cortex", "setting": "[2]; [4]", "result": 1.05, "unit": "%"},
      {"measurement": "C16:1n7t, brain outer cortex", "setting": "[2]; [4]", "result": 0.28, "unit": "%"},
      {"measurement": "C18:0, brain outer cortex", "setting": "[2]; [4]", "result": 16.53, "unit": "%"},
      {"measurement": "C18:1n9, brain outer cortex", "setting": "[2]; [4]", "result": 19.14, "unit": "%"},
      {"measurement": "C18:1t, brain outer cortex", "setting": "[2]; [4]", "result": 0.08, "unit": "%"},
      {"measurement": "C18:2n6, brain outer cortex", "setting": "[2]; [4]", "result": 0.63, "unit": "%"},
      {"measurement": "C18:2n6t, brain outer cortex", "setting": "[2]; [4]", "result": 0.23, "unit": "%"},
      {"measurement": "C18:3n3, brain outer cortex", "setting": "[2]; [4]", "result": 0.15, "unit": "%"},
      {"measurement": "C18:3n6, brain outer cortex", "setting": "[2]; [4]", "result": 0.02, "unit": "%"},
      {"measurement": "C18:4n3, brain outer cortex", "setting": "[2]; [4]", "result": 0.02, "unit": "%"},
      {"measurement": "C20:1n9, brain outer cortex", "setting": "[2]; [4]", "result": 0.23, "unit": "%"},
      {"measurement": "C20:2n6, brain outer cortex", "setting": "[2]; [4]", "result": 0.06, "unit": "%"},
      {"measurement": "C20:3n6, brain outer cortex", "setting": "[2]; [4]", "result": 0.35, "unit": "%"},
      {"measurement": "C20:4n6, brain outer cortex", "setting": "[2]; [4]", "result": 11.48, "unit": "%"},
      {"measurement": "C20:5n3, brain outer cortex", "setting": "[2]; [4]", "result": 0.15, "unit": "%"},
      {"measurement": "C22:4, brain outer cortex", "setting": "[2]; [4]", "result": 2.90, "unit": "%"},
      {"measurement": "C22:5n3, brain outer cortex", "setting": "[2]; [4]", "result": 0.98, "unit": "%"},
      {"measurement": "C22:5n6, brain outer cortex", "setting": "[2]; [4]", "result": 3.58, "unit": "%"},
      {"measurement": "C22:6n3, brain outer cortex", "setting": "[2]; [4]", "result": 17.38, "unit": "%"},
      {"measurement": "C24:0, brain outer cortex", "setting": "[2]; [4]", "result": 0.02, "unit": "%"},
      {"measurement": "C24:1n9, brain outer cortex", "setting": "[2]; [4]", "result": 0.05, "unit": "%"},
      {"measurement": "OMX-3 (Omega 3 Index, sum of EPA and DHA), brain outer cortex", "setting": "[2]; [4]", "result": 17.53, "unit": "%"},
      {"measurement": "DHA and EPA in total lipid extract of the outer cortex region", "setting": "[2]; Treatment 5 vs control", "result": "increase in DHA and EPA"},
      {"measurement": "DHA concentrations in blood or tissues after feeding SDA", "setting": "[3]", "result": "failed to find evidence of increased DHA concentrations"}
    ]}
  ]
}
